Literature values in patent US20060057204A1, “Pharmaceutical compositions containing venlafaxine” (priority 2002, published 2006).
Where a name gives a salt, the structure may show the parent alone.

Details: plural daily dosing regimen

nausea, patients under treatment: about forty five percent
vomiting, patients: about seventeen percent
Compound: COc1ccc(C(CN(C)C)C2(O)CCCCC2)cc1 (centres unmarked) [venlafaxine hydrochloride, 1-[(2-dimethylamino)-1-(4-methoxyphenyl)ethyl] cyclohexanol]
